Results on one compound are retold here after publication PMC9078972 (RSC Advances, 2018).

Each structure is given as a SMILES string. ≈ marks a conversion by molar mass, not a printed value.

The assay concerns Mycobacterium tuberculosis H37Ra. As to the kind of experiment: microbe, parasite or virus in culture. The format is cell-based.

With `CCCCN1CCN(c2nc(=O)c3cc(C(F)(F)F)cc([N+](=O)[O-])c3s2)CC1=O` [Compound 1d, 2-(4-Butyl-3-oxopiperazin-1-yl)-8-nitro-6-(trifluoromethyl)-4H-benzo[e][1,3]-thiazin-4-one], the MIC came out at 0.034 µM (≈ 0.0146 µg/mL).
